In US20260159486A1, “BENZO[H]QUINAZOLINE-4-AMINE DERIVATIVES FOR THE TREATMENT OF CANCER” (Redona Therapeutics, Inc., priority 2021, published 2026) one finds GI50, inhibition and IC50 data, which are given here for eight molecules.

In one test the test system is MDA-MB-231 cells. Briefly: MDA-MB-231 proliferation assay. Format: cell-based. The settings on record: Homo sapiens, MDA-MB-231, 72 h, YO-PRO-1 Iodide readout. In outline:
(§1)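 Cells seeded at 750 per well, treated next day for 72 h at 37 °C with 0.5% final DMSO. Cell number read by YO-PRO-1 fluorescence after lysis, normalized to DMSO (100%) and time-zero cells (0%). GI50 from 4-parameter logistic fit, maximum constrained to 100%.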

In another test the test system is CAL-51 cells. Kind of test: CAL-51 proliferation assay. Format: cell-based. Conditions: Homo sapiens, CAL-51, 72 h, YO-PRO-1 Iodide readout. In a few lines: as §1
The test system of test [1] is phospho-SRSF6 in MDA-MB-468 cells. Kind of test: Inhibition of phospho-SRSF6 levels in MDA-MB-468 cells (Western blot). Format: cell-based. The settings on record: Homo sapiens, 2 hours, compared to DMSO control; for inhibition at 0.01 µM: 10 nM, read-out: >50% p-SRSF6 reduction at 10 nM; for inhibition at 0.1 µM: 100 nM, read-out: >50% p-SRSF6 reduction at 100 nM. The procedure:
FIG. 1: FIG. 1 provides a representative Western blot showing reduction of phosphorylated-SRSF6 (P—SRSF6) in MDA-MB 468 cells by compounds of the invention. GAPDH was probed for by Western blotting to control for equal protein loading and for normalization of samples. The numbers below the blots show percent inhibition of the P—SRSF6 signal at 100 nM (A) or 10 nM (B) compared to DMSO control.
Assessment of Inhibition of Phospho-SRSF6 Levels in MDA-MB-468 Cells
MDA-MB-468 cells (ATCC, HTB-132) were cultured in DMEM (BioConcept cat. no. 1-26F03) supplemented with 10% FBS (Sigma cat. no. F9665), […] (Sigma cat. no. S8636), 1% Penicillin-Streptomycin (BioConcept cat. no. 4-01FOO-H). When cells reached a density of 70% o in 6-well plates (TPP cat. no. 92006), they were treated either with the test compound vehicle DMSO, or with experimental compounds at a final concentration of either 10 or 100 nM for 2 hours. Thereafter, the culture medium was removed and cells were collected by scraping in Lysis Buffer (20 mM Tris HCl pH7.5, 150 mM NaCl, 1 mM EGTA, 1 mM EDTA, 1% o Triton and 1% o NP-40) containing protease and phosphatase inhibitors (Halt™ Protease&Phosphatase inhibitor cocktail 100× ThermioScientific cat. no. 1861281) and 1 mM PMSF (Fluka cat. no. 93482). Cleared lysates were stored in Eppendorfftubes at −80° C. until use, and protein concentration in lysates was determined using Pierce 660 nm Protein Assay Reagent (ThermioScientific cat. no. 22660). 20 μg proteins were diluted in 4× Laemmli buffer (Biorad cat. no. 161-0747) containing 10% beta-mercaptoethanol, separated by SDS-PAGE using 10% gels, and then transferred to PVDF membranes (Trans Blot Turbo Transfer Pack BioRad cat. no. 1704156) by Trans-Blot® Turbo™ System semidry blotting methodology (BioRad). Primary antibodies were incubated in TBS-0.1% Tween-20 buffer containing 3% BSA Bovine Albumin Fr.V (Millipore cat. no. 81-053-3) overnight at 4° C. The following primary antibodies were used: Mouse anti-phosphoepitope SR proteins clone 1H4 (Millipore cat. no. MABE50) diluted 1:5000, and rabbit anti-GAPDH clone 14C10 (Cell Signaling cat. no. 2118S) to control for equal protein loading, diluted 1:2000. HRP-conjugated secondary antibodies were incubated one hour at room temperature diluted 1:5000 in TBS-0.1% Tween-20 buffer containing […] nonfat-dried bovine milk (Sigma cat. no. M7409). The following secondary antibodies were used: Goat anti-mouse-HRP (Jackson cat. no. 115-035-146) and goat anti-rabbit-HRP (Jackson cat. no. 111-035-144). Membranes were incubated with ECL Prime Western Blot Detection Reagent (Amersham cat. no. RPN2236) to detect specific signals using Fusion SOLO S device (Vilber Lourmat). Pixel intensity of the phopsho-SRSF6 (MW 55 kDa in reference to markers) and GAPDH (MW 37 kDa) signals in the Western blots were determined using Evolution-Capt image analysis software (v17.01, Vilber Lourmat). DMSO control was used to set the phospho-SRSF6 signal at baseline, phospho-SRSF6 signals for each sample were normalized by the respective GAPDH signals and percent intensity of P—SRSF6 signal at 10 and 100 nM compound compared to DMSO control was calculated (see FIG. 1).

The target of the next test is T1, recombinant human CLK3 (Homo sapiens, UniProt P49761).
T1 construct: purchased Thermo Fisher Scientific PV3826
Briefly: CLK3 kinase assay (LANCE Ultra). In kind it is biochemical. Conditions: CLK3 0.5 nM, ATP 300 μM, 3 hours at 30° C. In outline:
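Recombinant human CLK3 (0.5 nM) with ULight-CREBtide (50 nM) and 300 μM ATP, 3 h at 30 °C in kinase buffer; EDTA stop, then Eu-anti-phospho-CREB antibody (2 nM, 1 h RT), TR-FRET read at 665/620 nm. Inhibition normalized to DMSO and no-ATP wells; IC50 from 4-parameter fit, ten 1:3 concentrations in duplicate.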
(TR-FRET usually uses a lanthanide donor and a delayed reading to cut background.)

T1 sequence (P49761 whole entry): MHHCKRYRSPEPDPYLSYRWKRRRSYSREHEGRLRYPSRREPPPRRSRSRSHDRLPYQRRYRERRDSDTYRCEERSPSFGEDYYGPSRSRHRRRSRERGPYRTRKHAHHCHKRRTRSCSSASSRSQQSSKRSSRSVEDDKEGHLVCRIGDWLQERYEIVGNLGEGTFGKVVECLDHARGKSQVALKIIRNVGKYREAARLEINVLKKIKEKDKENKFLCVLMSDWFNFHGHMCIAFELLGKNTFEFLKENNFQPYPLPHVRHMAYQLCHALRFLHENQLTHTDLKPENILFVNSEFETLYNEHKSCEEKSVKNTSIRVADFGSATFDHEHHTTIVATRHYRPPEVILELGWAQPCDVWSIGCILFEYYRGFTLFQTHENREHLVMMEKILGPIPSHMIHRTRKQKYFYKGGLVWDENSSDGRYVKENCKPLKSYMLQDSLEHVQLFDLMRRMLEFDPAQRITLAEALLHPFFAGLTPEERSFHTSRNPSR

In general, GI50 refers to the concentration that inhibits growth by half. In general, IC50 refers to the concentration that inhibits the measured activity by half. For the molecule `CN(CCO)c1c(O[C@H]2CC[C@H](N)CC2)ccc2c1CC(C)(C)c1c(N)ncnc1-2` [Example 12, 2-[[4-amino-8-(trans-4-aminocyclohexoxy)-5,5-dimethyl-6H-benzo[h]quinazolin-7-yl]-methyl-amino]ethanol], the GI50 in the test with MDA-MB-231 cells and in the test with CAL-51 cells was under 0.1 µM in each case. Moreover, the inhibition at 0.01 µM in test [1] is under 50%. The inhibition at 0.1 µM in test [1] is over 50%. Also, the half-maximal inhibitory concentration (IC50) at recombinant human CLK3 is under 0.03 µM.
Turning to `CN(CCC#N)c1c(O[C@H]2CC[C@H](N)CC2)ccc2c1CC(C)(C)c1c(N)ncnc1-2` [Example 46, 3-[[4-amino-8-(trans-4-aminocyclohexoxy)-5,5-dimethyl-6H-benzo[h]quinazolin-7-yl]-methyl-amino]propanenitrile], the concentration for 50% growth inhibition (GI50) in the test on MDA-MB-231 cells and with CAL-51 cells was under 0.1 µM throughout. Besides, the inhibition at 0.01 µM in test [1] is over 50%. For the same molecule, the inhibition at 0.1 µM in test [1] is over 50%. The IC50 at recombinant human CLK3 was under 0.03 µM.
Regarding `CC1(C)Cc2c(ccc(O[C@H]3CC[C@H](N)CC3)c2-n2cccc2)-c2ncnc(N)c21` [Example 17, 8-(trans-4-aminocyclohexoxy)-5,5-dimethyl-7-pyrrol-1-yl-6H-benzo[h]quinazolin-4-amine], in the test on MDA-MB-231 cells, the 50% growth inhibitory concentration (GI50) was under 0.1 µM. In addition, the concentration for 50% growth inhibition (GI50) in the test on CAL-51 cells was under 0.1 µM. In test [1], the inhibition at 0.01 µM is under 50% and the inhibition at 0.1 µM was over 50%. In addition, the IC50 on recombinant human CLK3 was under 0.03 µM.
For `CN(CC(C)(C)O)c1c(O[C@H]2CC[C@H](N)CC2)ccc2c1CC(C)(C)c1c(N)ncnc1-2` [Example 40, 1-[[4-amino-8-(trans-4-aminocyclohexoxy)-5,5-dimethyl-6H-benzo[h]quinazolin-7-yl]-methyl-amino]-2-methyl-propan-2-ol], in the test with MDA-MB-231 cells, the GI50 fell in the range of 0.1 to 2 µM. Also, in the test with CAL-51 cells, the 50% growth inhibitory concentration (GI50) was under 0.1 µM. Further, in test [1], the inhibition at 0.01 µM is over 50% and the inhibition at 0.1 µM was over 50%. The IC50 at recombinant human CLK3 was 0.03 to 0.1 µM.
Turning to `CN(CC#N)c1c(O[C@H]2CC[C@@H](N)CC2)ccc2c1CC(C)(C)c1c(N)ncnc1-2` [Example 30, 2-[[4-amino-8-(cis-4-aminocyclohexoxy)-5,5-dimethyl-6H-benzo[h]quinazolin-7-yl]-methyl-amino]acetonitrile], in the test on MDA-MB-231 cells, the 50% growth inhibitory concentration (GI50) was under 0.1 µM. The 50% growth inhibitory concentration (GI50) in the test on CAL-51 cells was under 0.1 µM. Moreover, in test [1], the inhibition at 0.01 µM is over 50% and the inhibition at 0.1 µM is over 50%. In addition, the half-maximal inhibitory concentration (IC50) at recombinant human CLK3 is under 0.03 µM.
As for `CN(C)c1c(O[C@H]2CC[C@H](N)CC2)ccc2c1CC(C)(C)c1c(N)ncnc1-2` [Example 20, 8-(trans-4-aminocyclohexoxy)-N7,N7,5,5-tetramethyl-6H-benzo[h]quinazoline-4,7-diamine], the GI50 in the test with MDA-MB-231 cells and in the test with CAL-51 cells was under 0.1 µM throughout. For the same molecule, the inhibition at 0.01 µM in test [1] is over 50%. In addition, the inhibition at 0.1 µM in test [1] is over 50%. In addition, the IC50 at recombinant human CLK3 was under 0.03 µM.
`CCNc1c(O[C@H]2CC[C@H](N)CC2)ccc2c1CC(C)(C)c1c(N)ncnc1-2` [Example 8, 8-(trans-4-aminocyclohexoxy)-N7-ethyl-5,5-dimethyl-6H-benzo[h]quinazoline-4,7-diamine]: the GI50 in the test with MDA-MB-231 cells was in the range of 0.1 to 2 µM. For the same molecule, the concentration for 50% growth inhibition (GI50) in the test with CAL-51 cells is under 0.1 µM. In addition, in test [1], the inhibition at 0.01 µM is under 50% and the inhibition at 0.1 µM is over 50%. Also, the IC50 on recombinant human CLK3 was 0.03 to 0.1 µM.
On to `CCN(CC)c1c(O[C@H]2CC[C@H](N)CC2)ccc2c1CC(C)(C)c1c(N)ncnc1-2` [Example 7, 8-(trans-4-aminocyclohexoxy)-N7,N7-diethyl-5,5-dimethyl-6H-benzo[h]quinazoline-4,7-diamine], for which the concentration for 50% growth inhibition (GI50) in the test on MDA-MB-231 cells lay in the range of 0.1 to 2 µM. In addition, in the test with CAL-51 cells, the GI50 fell in the range of 0.1 to 2 µM. In test [1], the inhibition at 0.01 µM is over 50% and the inhibition at 0.1 µM was over 50%. At recombinant human CLK3, the concentration for half-maximal inhibition (IC50) was under 0.03 µM.
